Results from ChEMBL document CHEMBL4043174, “Synthesis, conformational study and antiviral activity of l-like neplanocin derivatives” (Bioorg Med Chem Lett, 2017).
≈ marks a conversion by molar mass, not a printed value. Calls of active or inactive are those of the source. The rule behind the calls is not given here.

Tests used:
Enterovirus C = assay: Antiviral activity against Poliovirus; assay type: functional
West Nile virus [1] = assay: Antiviral activity against West Nile virus; assay type: functional
Rift Valley fever virus [2] = assay: Antiviral activity against Rift Valley fever virus; assay type: functional
Ebolavirus = assay: Antiviral activity against Ebolavirus; assay type: functional; conditions: for EC50: Orthoebolavirus
Yellow fever virus [3] = assay: Antiviral activity against Yellow fever virus; assay type: functional
unidentified adenovirus = assay: Antiviral activity against Adenovirus; assay type: functional
Usutu virus = assay: Antiviral activity against Usutu virus; assay type: functional
Punta Toro virus = assay: Antiviral activity against Punta Toro virus; assay type: functional
Measles morbillivirus = assay: Antiviral activity against measles virus; assay type: functional
Dengue virus [4] = assay: Antiviral activity against Dengue virus; assay type: functional
[5] = system: Japanese encephalitis virus; assay: Antiviral activity against Japanese encepahalitis virus; assay type: functional
Zika virus = assay: Antiviral activity against Zika virus; assay type: functional
Chikungunya virus = assay: Antiviral activity against Chikungunya virus; assay type: functional
[6] = system: Venezuelan equine encephalitis virus; assay: Antiviral activity against Venezuelan equine encephalitis virus; assay type: functional
Vero = assay: (§1) Cytotoxicity against African green monkey Vero cells assessed as reduction in cell viability; assay type: cell-based; conditions: chlorocebus sabaeus, vero
Tacaribe virus = assay: Antiviral activity against Tacaribe virus; assay type: functional; conditions: Mammarenavirus tacaribeense
Norovirus = assay: Antiviral activity against Norovirus; assay type: functional
Rift Valley fever virus [7] = assay: Antiviral activity against Rift Valley fever virus infected in African green monkey Vero cells; assay type: functional
Dengue virus [8] = assay: Antiviral activity against Dengue virus infected in African green monkey Vero cells; assay type: functional
[9] = system: Japanese encephalitis virus; assay: Antiviral activity against Japanese encepahalitis virus infected in African green monkey Vero cells; assay type: functional
[10] = system: Venezuelan equine encephalitis virus; assay: Antiviral activity against Venezuelan equine encephalitis virus infected in African green monkey Vero cells; assay type: functional
West Nile virus [11] = assay: Antiviral activity against West Nile virus infected in African green monkey Vero cells; assay type: functional
[12] = as §1; assay type: cell-based; conditions: chlorocebus sabaeus, Vero cells
Yellow fever virus [13] = assay: Antiviral activity against Yellow fever virus infected in African green monkey Vero cells; assay type: functional
[14] = system: Vesicular stomatitis virus; assay: Antiviral activity against vesicular stomatitis virus infected in PRK cells assessed as reduction in virus-induced cytopathic effect after 1 to 2 days; assay type: functional, cell-based
Vaccinia virus = assay: Antiviral activity against vaccinia virus infected in PRK cells assessed as reduction in virus-induced cytopathic effect after 2 to 3 days; assay type: functional, cell-based; conditions: Orthopoxvirus vaccinia

Nc1ncc(Br)c2c1ncn2[C@@H]1[C@@H](O)[C@@H](O)[C@H]2C[C@H]21
Activity (Enterovirus C): inactive
Activity (West Nile virus [1]): inactive
Activity (Rift Valley fever virus [2]): inactive
Activity (Ebolavirus): inactive
Activity (Yellow fever virus [3]): inactive
Activity (unidentified adenovirus): inactive
Activity (Usutu virus): inactive
Activity (Punta Toro virus): inactive
Activity (Measles morbillivirus): inactive
Activity (Dengue virus [4]): inactive
Activity [5]: inactive
Activity (Zika virus): inactive
Activity (Chikungunya virus): inactive
Activity [6]: inactive
Activity (Vero): Non-Toxic
Activity (Tacaribe virus): inactive
EC50 (Norovirus): 3 µM

Nc1nccc2c1ncn2[C@@H]1[C@@H](O)[C@@H](O)[C@H]2C[C@H]21
Activity (Enterovirus C): inactive
Activity (West Nile virus [1]): inactive
Activity (Rift Valley fever virus [2]): inactive
Activity (Ebolavirus): inactive
Activity (Yellow fever virus [3]): inactive
Activity (unidentified adenovirus): inactive
Activity (Usutu virus): inactive
Activity (Punta Toro virus): inactive
Activity (Measles morbillivirus): inactive
Activity (Dengue virus [4]): inactive
Activity [5]: inactive
Activity (Zika virus): inactive
Activity (Chikungunya virus): inactive
Activity [6]: inactive
Activity (Vero): Non-Toxic
Activity (Tacaribe virus): inactive
EC50 (Norovirus): > 100 µM

Nc1ncc(Br)c2c1ncn2[C@H]1C=C[C@H](O)[C@@H]1O
Activity (Enterovirus C): inactive
IC50 (Rift Valley fever virus [7]): 31 µg/mL (≈ 99.6 µM)
Activity (West Nile virus [1]): inactive
IC50 (Dengue virus [8]): 7.2 µg/mL (≈ 23.1 µM)
Activity (Rift Valley fever virus [2]): inactive
EC50 (Ebolavirus): 8.3 µg/mL (≈ 26.7 µM)
Activity (Yellow fever virus [3]): inactive
IC50 [9]: 32 µg/mL (≈ 103 µM)
Activity (unidentified adenovirus): inactive
Activity (Usutu virus): inactive
IC50 [10]: 27 µg/mL (≈ 86.8 µM)
Activity (Punta Toro virus): inactive
Activity (Measles morbillivirus): inactive
Activity (Dengue virus [4]): inactive
Activity [5]: inactive
IC50 (West Nile virus [11]): 32 µg/mL (≈ 103 µM)
Activity (Zika virus): inactive
Activity (Chikungunya virus): inactive
Activity [6]: inactive
CC50 [12]: 27 to 32 µg/mL (≈ 86.8 to 103 µM)
Activity (Tacaribe virus): inactive
IC50 (Yellow fever virus [13]): 32 µg/mL (≈ 103 µM)
EC50 (Norovirus): 33 µM

Nc1nccc2c1ncn2[C@H]1C=C[C@H](O)[C@@H]1O (relative stereo)
Activity (Enterovirus C): inactive
EC50 [14]: 0.2 µg/mL (≈ 0.861 µM)
Activity (West Nile virus [1]): inactive
Activity (Rift Valley fever virus [2]): inactive
EC50 (Ebolavirus): 29.5 µg/mL (≈ 127 µM)
Activity (Yellow fever virus [3]): inactive
EC50 (Vaccinia virus): 0.7 µg/mL (≈ 3.01 µM)
Activity (unidentified adenovirus): inactive
Activity (Usutu virus): inactive
Activity (Punta Toro virus): inactive
Activity (Measles morbillivirus): inactive
Activity (Dengue virus [4]): inactive
Activity [5]: inactive
Activity (Zika virus): inactive
Activity (Chikungunya virus): inactive
Activity [6]: inactive
Activity (Vero): Non-Toxic
Activity (Tacaribe virus): inactive
EC50 (Norovirus): 4.2 µM
